From PubChem BioAssay (NCI)
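Step 1: Grow cells in 96-well plates. Step 2: Expose to compound for 48 hours at 5 concentrations. Step 3: Interpolate endpoints linearly; if unreached, use highest concentration. GI50: concentration for 50% inhibition of growth. At the TGI there is no net growth.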

Columns and labels:
Assay in all cases: DTP human tumour cell line panel, 48 h
A498 renal = test system: A498 renal
SNB-19 CNS = test system: SNB-19 CNS
OVCAR-5 ovarian = test system: OVCAR-5 ovarian
SR leukemia = test system: SR leukemia
NCI/ADR-RES ovarian = test system: NCI/ADR-RES ovarian
PC-3 prostate = test system: PC-3 prostate
HOP-62 NSCLC = test system: HOP-62 NSCLC
HS 578T breast = test system: HS 578T breast
UACC-62 melanoma = test system: UACC-62 melanoma

SMILES | TGI (A498 renal) [µM] | TGI (SNB-19 CNS) [µM] | TGI (OVCAR-5 ovarian) [µM] | TGI (SR leukemia) [µM] | TGI (NCI/ADR-RES ovarian) [µM] | TGI (PC-3 prostate) [µM] | TGI (HOP-62 NSCLC) [µM] | TGI (HS 578T breast) [µM] | TGI (UACC-62 melanoma) [µM] | GI50 (A498 renal) [µM] | GI50 (HS 578T breast) [µM] | GI50 (SR leukemia) [µM] | GI50 (NCI/ADR-RES ovarian) [µM] | GI50 (PC-3 prostate) [µM] | GI50 (HOP-62 NSCLC) [µM] | GI50 (SNB-19 CNS) [µM] | GI50 (UACC-62 melanoma) [µM] | GI50 (OVCAR-5 ovarian) [µM]
Cc1cc(S(=O)(=O)Nc2nc(N)nc(N(C)C)n2)c(SCC(=O)O)cc1Cl | > 10 | > 10 | > 10 | > 10 | > 10 | > 10 | > 10 |  |  |  |  |  |  |  |  |  |  | 
COc1cc2c(=O)cnoc2cc1O | > 100 | > 100 | > 100 | > 100 | > 100 | > 100 |  | > 100 | > 100 |  |  |  |  |  |  |  |  | 
O=C(O)/C(Cc1ccc([N+](=O)[O-])cc1)=N\O | > 100 | > 100 | > 100 |  | > 100 | > 100 | > 100 | > 100 | > 100 |  |  |  |  |  |  |  |  | 
C=CCO[C@]1(CC=C)C(=O)C(=O)OC1C1COC(C)(C)O1 (some centres undefined) | > 100 | > 100 | > 100 | 67 | > 100 | > 100 | > 100 | > 100 |  |  |  |  |  |  |  |  |  | 
CC/C=C(\C(=C/CC)[N+](=O)[O-])[N+](=O)[O-] |  | > 100 | 27.2 |  | 52.7 | > 100 | > 100 |  | 33.6 |  |  |  |  |  |  |  |  | 
COc1ccc(CN=C(N)N)c2ccccc12 |  | > 100 | 73.4 |  | > 100 | > 100 | > 100 | 54.9 | > 100 |  |  |  |  |  |  |  |  | 
CCOC(=O)C(NC(=O)c1ccccc1)(N1CCOCC1)C(F)(F)F (centres undefined) |  | > 100 | > 100 | > 100 | > 100 | > 100 | > 100 | > 100 | > 100 |  |  |  |  |  |  |  |  | 
CCCCON1C[C@H](OC(C)=O)C(OC(C)=O)[C@H](OC(C)=O)C1 (some centres undefined) | > 100 | > 100 |  | > 100 | > 100 | > 100 | > 100 | > 100 | > 100 |  |  |  |  |  |  |  |  | 
Cc1cn([C@@H]2O[C@H](CO[Si](C)(C)C(C)(C)C)[C@]3(O[C@H]3C(=O)NN)[C@H]2O[Si](C)(C)C(C)(C)C)c(=O)[nH]c1=O | 30.5 | 21.7 | 21.3 |  | 33 | 11.4 | 33.3 | 6.93 | 24 |  |  |  |  |  |  |  |  | 
Cc1ccc(N(CC(=O)Nc2ccc(S(=O)(=O)N3CCC(N4CCCC4)CC3)cc2)S(=O)(=O)c2ccc(Cl)cc2)cc1 | 2.84 |  |  | 0.856 | 4.05 | 4.05 | 3.55 | 4.39 |  | 1.44 | 1.76 | 0.3 | 1.93 | 1.88 | 1.76 |  |  | 
Cc1ccc(/C=N/Nc2ccc3ccccc3n2)s1 |  | 59 | > 100 | > 100 | > 100 | 31.5 | 41.1 | > 100 | > 100 |  |  |  |  |  |  |  |  | 
CC1C2(C)OC(=N)C(C#N)(C(c3cccc([N+](=O)[O-])c3)O2)C1(C#N)C#N (centres undefined) | > 100 | > 100 | > 100 |  | > 100 | > 100 |  | > 100 | 42.7 |  |  |  |  |  |  |  |  | 
CC(=O)N=C1N(/C=C2\C(=O)Oc3ccccc3C2=O)C(=O)/C(=C/c2ccc(Cl)cc2Cl)N1C | > 100 |  | > 100 | 94.2 | > 100 | > 100 | > 100 | 5.03 | > 100 |  |  |  |  |  |  |  |  | 
CCCCCCCCCCCCCCCCOC[C@@H](COC(c1ccccc1)(c1ccccc1)c1ccccc1)O[P+](=S)OC (some centres undefined) | 26.1 | 21.3 | 28.7 | 5.46 | 59.8 | 18.9 |  | 82.6 | 14.5 |  |  |  |  |  |  |  |  | 
Cc1ccc(/C(O)=C/c2nc3ccccc3s/c2=N/CS(=O)(=O)c2ccc(C)cc2)cc1 |  | > 10 | > 10 | > 10 | > 10 | > 10 | > 10 | > 10 | > 10 |  |  |  |  |  |  |  |  | 
Oc1ccc(Cl)cc1CN1CCN(Cc2cc(Cl)ccc2O)C1 | 29.4 | 12.2 | 16.9 |  | 1.1 | 6.69 | 2.79 | 8.99 | 3.94 |  |  |  |  |  |  |  |  | 
CN(c1ccccc1Cl)S(=O)(=O)c1ccc([N+](=O)[O-])cc1 |  | > 100 | > 100 | > 100 | > 100 | > 100 | > 100 | > 100 | > 100 |  |  |  |  |  |  |  |  | 
Nc1nc(N)c2cc(NCc3ccc(Cl)c(Cl)c3)ccc2n1 | 2.41 | 2.78 | 2.19 |  | 16.6 | 1.96 | 3.01 |  | 2.7 | 1.16 |  |  | 2.88 | 0.623 | 1.63 | 1.46 | 1.39 | 1.02
N#Cc1c(-c2ccccc2)[nH]c(=O)n(C2OC(CO)C(O)C(O)C2O)c1=O (centres undefined) | > 100 | > 100 | > 100 |  | > 100 | > 100 | > 100 | > 100 | > 100 |  |  |  |  |  |  |  |  | 
O=C(N/N=C(/COc1ccc([N+](=O)[O-])cc1)N=Cc1ccncc1)c1ccncc1 | > 100 | > 100 | > 100 |  | > 100 | > 100 | > 100 |  | > 100 |  |  |  |  |  |  |  |  | 
CC(=O)OC[C@@H](OC(C)=O)[C@H](OC(C)=O)[C@@H]1OC(C)(C)O[C@@H]1C1SCCCS1 | > 100 | > 100 | > 100 | > 100 |  | > 100 | > 100 | > 100 | > 100 |  |  |  |  |  |  |  |  | 
CCCCCCCCCCC1OC([C@@H](O)CC[C@H](O)C2CC[C@@H](CCCCCCCC(O)CC3=CC(C)OC3=O)O2)CCC1O (some centres undefined) | > 25 | > 25 | > 25 | 16.5 | > 25 | > 25 | > 25 |  | > 25 |  |  |  | 6.4 | 2.92 | 6.29 | 2.9 |  | 
O=c1[nH]nc(Cc2ccccc2)n1CCO | > 100 | > 100 | > 100 |  | > 100 | > 100 |  | > 100 | > 100 |  |  |  |  |  |  |  |  | 
Cc1c2c(OCCN3CCCCC3)nn(C)c(=O)c2c(C)n1-c1ccccc1 | 36.9 | > 100 | > 100 |  | > 100 | > 100 | > 100 | > 100 | > 100 |  |  |  |  |  |  |  |  | 
